Source: patent US11753408B2, “Compounds and method for blocking transmission of malarial parasite” (The United States of America, as represented by the …, priority 2016, dated 2023)

Tests used:
[1] = tested on: Stage III-V gametocytes (blood stage P. falciparum parasites); assay: In vitro drug activity on gametocytes (AlamarBlue viability assay); type: cell-based, Plasmodium falciparum; details: read-out: Gametocyte EC50
Outline: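 Viability was measured by AlamarBlue fluorescence (Ex 525/Em 598 nm) after 24 h dye incubation following 72 h compound exposure at 37° C, 5% CO2. Gametocytes, stage III–V from strains 3D7, HB3 and Dd2, were NAG/Percoll-enriched and plated at 20,000 cells/well.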

[2] = tested on: Asexual parasites of P. falciparum strain 3D7; assay: In vitro drug activity on asexual parasites (SYBR Green assay); type: cell-based, Plasmodium falciparum
Outline: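 SYBR Green I fluorescence (ex 490, em 520 nm) was read after freeze-thaw lysis and 30 min staining at room temperature. Before that, drug-treated cultures (0.5% parasitemia, 2% hematocrit, DMSO ≤0.5%) were incubated 72 h, in duplicate.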

mTOR = mTOR (Homo sapiens, UniProt P42345); assay: mTOR activity (no method described); type: biochemical
[3] = Microsomal stability (rat); type: in vitro ADME; details: rat microsomes
Solubility at pH 7.4 = type: physicochemical
PAMPA permeability = type: in vitro ADME

Compound | EC50 [1] [nM] | EC50 [2] [nM] | mTOR (mTOR) [µM] | Microsomal Stability (rat) T1/2 [3] [min] | Sol @ pH 7.4 (Solubility at pH 7.4) [ug/mL] | PAMPA Permeability (PAMPA permeability) [×10⁻⁶ cm/s]
O=Cc1ccc(-c2ccc3ncc4ccc(=O)n(-c5ccc(C(=O)N6CCOCC6)cc5)c4c3c2)cn1 [Compound 171] | 240 | 47.5 | 0.1543 | 2.8 | >72.0 | 31.3
CNC(=O)c1ccc(-n2c(=O)ccc3cnc4ccc(-c5ccc(N)nc5)cc4c32)cc1 [Compound 335] | 17.7 | 14.4 | 0.02821 | >30.0 | 2.8 | < 2.2
O=C(c1ccc(-n2c(=O)ccc3cnc4ccc(-c5ccc(CN6CCCC6)cc5)cc4c32)cc1)N1CCOCC1 [Compound 184] | 821 | 171 | 18.05 | >30 | 56.1 | 292
NC1(c2ccc(-c3ccc4ncc5ccc(=O)n(-c6ccc(C(=O)N7CCOCC7)cc6)c5c4c3)cc2)CCC1 [Compound 181] | 1920 | 1580 | 0.8304 | >30 | 17.3 | 36.3
CN(C)Cc1ccc(-c2ccc3ncc4c(c3c2)n(-c2cccc(C#N)c2)c(=O)n4C)cc1 [Compound 436] | 1970 | 892 | 12.45 | >30.0 | 52.9 | 767
N#Cc1cccc(-n2c(=O)n(CCO)c3cnc4ccc(-c5ccc(Cl)cc5)cc4c32)c1 [Compound 404] | 1640 | 681 | 50 | >30.0 | 0.9 | 19.5
O=C(c1ccc(-n2c(=O)ccc3cnc4ccc(-c5ccc(Cl)cc5)cc4c32)cc1)N1CCNCC1 [Compound 103] | 71.3 | 74.3 | 2.997 | 10.5 | 6.3 | 76.1
CNC(=O)c1ccc(-n2c(=O)ccc3cnc4ccc(-c5ccc(CN(C)C)cc5)cc4c32)cc1 [Compound 174] | 265 | 133 | 7.636 | >30.00 | >68.00 | 49.9
CN(C)C(=O)c1ccc(-n2c(=O)ccc3cnc4ccc(-c5ccc(Cl)cc5)cc4c32)cc1 [Compound 100] | 45.5 | 14.8 | 1.531 | 3.8 | <1.0 | 315
CNC(=O)c1ccc(-n2c(=O)ccc3cnc4ccc(-c5ccc(Cl)cc5)cc4c32)cc1Cl [Compound 115] | 6.21 | 8.14 | 0.2294 | 9 | <1.0 | < 1
CN1CC2CN(C(=O)c3ccc(-n4c(=O)ccc5cnc6ccc(-c7ccc(Cl)cc7)cc6c54)cc3)CC2C1 (stereo not drawn) [Compound 141] | 260 | 47.5 | 8.043 | 4.2 | 66.5 | 1500
O=C(c1ccc(-n2c(=O)ccc3cnc4ccc(-c5ccc(Cl)cc5)cc4c32)cc1)N1CCN(CCO)CC1 [Compound 109] | 18 | 60.7 | 3.26 | 12.3 | 4.2 | 227
O=C(c1ccc(-n2c(=O)ccc3cnc4ccc(-c5ccc(Cl)cc5)cc4c32)cc1)N1CCC1 [Compound 108] | 59.1 | 61.4 | 1.165 | <1.0 | <1.0 | 119
O=C(c1ccc(-n2c(=O)ccc3cnc4ccc(-c5ccc(Cl)cc5)cc4c32)cc1)N(CCO)CCO [Compound 105] | 94.3 | 47.9 | 0.7799 | 5.9 | 14.8 | 285
N#Cc1ccc(-c2ccc3ncc4ccc(=O)n(-c5ccc(C(=O)N6CCOCC6)cc5)c4c3c2)cc1 [Compound 170] | 168 | 122 | 3.773 | 13.3 | 2.7 | 591
N#Cc1cc(-c2ccc3ncc4ccc(=O)n(-c5ccc(C(=O)N6CCOCC6)cc5)c4c3c2)ccc1Cl [Compound 153] | 52.9 | 127 | 18.36 | 9.4 | <1.0 | 57.9
Nc1ccc(-c2ccc3ncc4ccc(=O)n(-c5ccc(C(=O)N6CCOCC6)cc5)c4c3c2)cn1 [Compound 334] | 19.7 | 8.21 | 0.08872 | >30.0 | 30 | 14.9
Cc1cc(=O)n(-c2ccc(C(=O)NC3CC3)cc2)c2c1cnc1ccc(-c3ccc(Cl)cc3)cc12 [Compound 179] | 1700 | 451 | 100 | 19.4 | <1 | < 1
CN(C)C(=O)c1cccc(-n2c(=O)ccc3cnc4ccc(-c5ccc(N)nc5)cc4c32)c1 [Compound 332] | 1520 | 859 | 0.4949 | >30.0 | >64.0 | 31.9
O=C(c1ccc(-n2c(=O)ccc3cnc4ccc(-c5ccc(Cl)cc5)cc4c32)cc1Cl)N1CCOCC1 [Compound 116] | 65 | 22 | 0.4546 | <1.0 | <1.0 | 383
CN(C)Cc1ccc(-c2ccc3ncc4ccc(=O)n(-c5ccc(C(=O)N6CC7CC6CN7C)cc5)c4c3c2)cc1 (stereo not drawn) [Compound 165] | 4090 | 934 | 50 | >30.0 | >80.0 | 1.8
CN(C)Cc1ccc(-c2ccc3ncc4ccc(=O)n(-c5ccc(C(=O)N6CCOCC6)cc5)c4c3c2)cc1 [Compound 86] | 212 | 177 | 3.776 | >30.0 | 61.6 | 459
Cn1c(=O)n(-c2cccc(C#N)c2)c2c3cc(-c4ccc(F)cc4)ccc3ncc21 [Compound 402] | 343 | 140 | 53.21 | >30.0 | 1.9 | 223
Cn1c(=O)n(-c2cccc(C#N)c2)c2c3cc(-c4ccc(Cl)c(O)c4)ccc3ncc21 [Compound 441] | 686 | 319 | 0.5162 | >30.0 | <1.0 | < 1
O=C(c1ccc(-n2c(=O)ccc3cnc4ccc(-c5ccc(Cl)cc5)cc4c32)cc1C(F)(F)F)N1CCOCC1 [Compound 126] | 118 | 24 | 0.3724 | 1.7 | <1.0 | 1240
CN(C)C(=O)c1cc(-c2ccc3ncc4ccc(=O)n(-c5ccc(C(=O)N6CCOCC6)cc5)c4c3c2)ccc1Cl [Compound 146] | 1810 | 536 | 5.732 | 9.6 | 63 | 98.3
CN(C)Cc1ccc(-c2ccc3ncc4ccc(=O)n(-c5ccc(C(=O)N(CCO)CCO)cc5)c4c3c2)cc1 [Compound 160] | 270 | 96.1 | 9.278 | >30.0 | >79.0 | < 1
NCc1cccc(-c2ccc3ncc4ccc(=O)n(-c5ccc(C(=O)N6CCOCC6)cc5)c4c3c2)c1 [Compound 180] | 1820 | 931 | 2.454 | >30 | 43.7 | 3.8
NCCc1ccc(-c2ccc3ncc4ccc(=O)n(-c5ccc(C(=O)N6CCOCC6)cc5)c4c3c2)cc1 [Compound 183] | 131 | 49.8 | 0.7945 | >30 | 28.4 | < 1
Cc1ccc(-c2ccc3ncc4c(c3c2)n(-c2cccc(C#N)c2)c(=O)n4C)cc1 [Compound 438] | 169 | 174 | 100 | 27.2 | <1.0 | < 1
